Laboratory results published in patent publication US10570155B2, “Imidazooxazole derivative having antitumor effect, and pharmaceutical composition including same” (KOREA INSTITUTE OF SCIENCE AND TECHNOLOGY, priority 2016, dated 2020).

Experiments:
LOX IMVI = experiment: NCI cancer cell line panel screening (SRB), melanoma cell line LOX IMVI; format: cell-based, human; details: Homo sapiens, read-out: IC50 against melanoma cell line in vitro
Procedure: (§1) According to the standard protocol (http://dtp.nci.nih.gov/dtpstandard/dwindex/index.isp) of the US National Cancer Institute (NCI) (www.dtp.nci.nih.gov), screening of a cancer cell line panel was performed. […] For a general screening experiment, cells were inoculated in 96-well microtiter plates in 100 μl at a plating density ranging from 5000 cells/well to 40,000 cells/well depending on the doubling time of individual cell lines. After cell inoculation, the microtiter plates were incubated at 37° C., 5% CO2, 95% air, and 100% relative humidity for 24 hours prior to addition of test compounds. 24 hours later, two plates of each cell line were fixed in situ with trichloroacetic acid (TCA) to measure the cell population for each cell line at the time of test compound addition (Tz). Test compounds were solubilized in dimethyl sulfoxide at 400-fold the intended final maximum test concentration, and stored frozen prior to use. At the time of compound addition, an aliquot of frozen concentrate was thawed and diluted to twice the intended final maximum test concentration with a complete medium containing 50 μg/ml of gentamicin. Additional four concentration of 10-fold or ½ log serial dilutions were made to provide a total of five compound concentrations plus control. Aliquots of 100 μl of these different compound dilutions were added to appropriate microtiter wells already containing 100 μl of medium, resulting in the required final compound concentrations.
(§2) Following compound addition, the plates were incubated for additional 48 hours at 37° C., 5% CO2, 95% air, and 100% relative humidity. For adherent cells, the assay was terminated by the addition of cold TCA. Cells were fixed in situ by the gentle addition of 50 μl of cold 50% (w/v) TCA (final concentration, 10% TAC) and incubated at 4° C. for 60 minutes. The supernatant was discarded, and the plates were washed five times with tap water and air-dried. A sulforhodamine B (SRB) solution (100 μl) at 0.4% (w/v) in 1% acetic acid was added to each well, and plates were incubated at room temperature for 10 minutes. After staining, unbound dye was removed by washing five times with 1% acetic acid and the plates were air-dried. […] For suspension cells, the methodology was the same except that the assay was terminated by fixing settled cells at the bottom of the wells by gently adding 50 μl of 80% TCA (final concentration, 16% TCA). Using the seven absorbance measurements [time zero (Tz), control growth (C), and test growth rate in the presence of compound at the five concentration levels (Ti)], the growth percentage was calculated at each of the compound concentration levels. Growth inhibition percentage was calculated as follows: [(Ti−Tz)/(C−Tz)]×100 for concentrations for which Ti>/=Tz [(Ti−Tz)/Tz]×100 for concentrations for which Ti<Tz.

SK-MEL-2 = experiment: NCI cancer cell line panel screening (SRB), melanoma cell line SK-MEL-2; format: cell-based, human; details: Homo sapiens, read-out: IC50 against melanoma cell line in vitro
Procedure: as §1, §2

SK-MEL-28 = experiment: NCI cancer cell line panel screening (SRB), melanoma cell line SK-MEL-28; format: cell-based, human; details: Homo sapiens, read-out: IC50 against melanoma cell line in vitro
Procedure: as §1, §2

B-RAF = B-RAF (Homo sapiens (Human), UniProt P15056); experiment: Protein kinase enzymatic activity (Reaction Biology kinase hotspot, 33P-ATP); format: biochemical; details: read-out: Inhibitory effect against kinase activity, B-RAF (IC50)
Procedure: (§3) Reaction biology kinase hotspot service (http://www.reactionbiology.com) was used to measure IC50. In a final reaction volume of 25 μL, kinase (5 mU to 10 mU) was incubated with 25 mM Tris (pH 7.5), 0.02 mM EGTA, 0.66 mg/ml of myelin basic protein, 10 mM magnesium acetate, and [^33P-ATP] (specific activity of about 500 CPM/pmol, concentration as required). The reaction was initiated by addition of Mg-ATP mix. After incubation for 40 min at room temperature, the reaction was stopped by addition of 5 μl of a 3% phosphoric acid solution. 10 μL of the reaction was then spotted onto a P30 filtermat and washed three times for 5 minutes in 75 mM phosphoric acid and once in methanol prior to drying and scintillation counting.

C-RAF = C-RAF (Homo sapiens (Human), UniProt P04049, Y340D/Y341D); experiment: as above; format: biochemical; details: read-out: Inhibitory effect against kinase activity, C-RAF (IC50)
Procedure: as §3

V600E-B-RAF = V600E-B-RAF (Homo sapiens (Human), UniProt P15056, V600E); experiment: as above; format: biochemical; details: read-out: Inhibitory effect against kinase activity, V600E-B-RAF (IC50)
Procedure: as §3

[1] = tested on: A375P cell line xenograft; experiment: Tumor-inhibitory effects in melanoma mouse xenograft model; format: in vivo, nude mice; parameters: Tumor size: unit not given here
Procedure: In this experiment, A375P cell line which is a human-derived malignant melanoma cell line was subcutaneously administered to nude mice to prepare xenograft models, and the test material (compound 2II) was administered to the xenograft models to evaluate anti-cancer effects (GI: an excipient control group, G2: a group administered with 20 mg/kg/day of the test material, and G3: a group administered with 50 mg/kg/day of the test material).

[2] = 20 and 50 mg/kg/day, intravenous, twice per week for 3 weeks

C-RAF, sequence (P04049 306-648 Y340D/Y341D limits assumed): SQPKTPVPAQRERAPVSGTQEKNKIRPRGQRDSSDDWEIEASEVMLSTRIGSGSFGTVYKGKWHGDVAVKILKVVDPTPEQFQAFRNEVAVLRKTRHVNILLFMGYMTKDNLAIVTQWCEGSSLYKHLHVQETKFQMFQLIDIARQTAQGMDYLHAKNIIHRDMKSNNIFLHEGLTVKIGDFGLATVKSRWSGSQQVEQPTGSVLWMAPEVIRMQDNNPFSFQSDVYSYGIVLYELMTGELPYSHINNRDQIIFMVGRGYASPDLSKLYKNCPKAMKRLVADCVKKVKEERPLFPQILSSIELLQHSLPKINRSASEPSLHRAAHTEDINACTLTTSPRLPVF
B-RAF, sequence (P15056 whole entry): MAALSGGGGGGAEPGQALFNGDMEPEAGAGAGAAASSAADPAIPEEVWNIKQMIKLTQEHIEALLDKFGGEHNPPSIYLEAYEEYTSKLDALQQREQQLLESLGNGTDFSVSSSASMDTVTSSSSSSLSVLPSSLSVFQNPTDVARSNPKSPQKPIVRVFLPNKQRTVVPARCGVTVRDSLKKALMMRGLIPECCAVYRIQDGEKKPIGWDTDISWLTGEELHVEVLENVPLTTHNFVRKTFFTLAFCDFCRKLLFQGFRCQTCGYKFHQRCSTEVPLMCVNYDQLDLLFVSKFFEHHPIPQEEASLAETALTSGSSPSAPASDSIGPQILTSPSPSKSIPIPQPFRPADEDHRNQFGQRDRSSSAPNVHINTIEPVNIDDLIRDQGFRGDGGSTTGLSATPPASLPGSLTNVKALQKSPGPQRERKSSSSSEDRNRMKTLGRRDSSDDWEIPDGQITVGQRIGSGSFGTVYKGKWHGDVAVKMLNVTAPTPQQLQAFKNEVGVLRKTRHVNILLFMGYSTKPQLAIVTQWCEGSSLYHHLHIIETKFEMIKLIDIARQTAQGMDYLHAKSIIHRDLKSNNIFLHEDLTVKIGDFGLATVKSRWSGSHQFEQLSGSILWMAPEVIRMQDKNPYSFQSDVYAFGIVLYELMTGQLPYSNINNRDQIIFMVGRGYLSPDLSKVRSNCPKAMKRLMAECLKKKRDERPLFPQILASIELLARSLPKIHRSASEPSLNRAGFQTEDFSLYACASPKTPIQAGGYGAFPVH
V600E-B-RAF, sequence (P15056 whole entry V600E): as the sequence (P15056 whole entry) above, with V600E counted along it

## CCN1CCN(CCNc2nccc(-c3c(-c4cccc(O)c4)nc4occn34)n2)S1(=O)=O [2II, 2-Ethyl-5-(2-((4-(6-(3-hydroxylphenyl)imidazo[2,1-b]oxazol-5-yl)pyrimidin-2-yl)amino)ethyl)-1,2,5-thiadiazolidine 1,1-dioxide]
LOX IMVI
  IC50: 2530 nM
SK-MEL-2
  IC50: 2600 nM
SK-MEL-28
  IC50: 130 nM
B-RAF
  IC50: < 0.04 nM
C-RAF
  IC50: 0.75 nM
V600E-B-RAF
  IC50: 0.67 nM
[1]; [2]
  General symptoms and deaths: no deaths or no abnormalities in general symptoms were observed
  Increase of the tumor size: inhibited in a dose-dependent manner
[1]; G1, G2 (20 mg/kg/day), G3 (50 mg/kg/day)
  Tumor size, difference between experimental groups: no significant difference between all experimental groups
[1]; G2, 20 mg/kg/day, day 0
  Tumor size: 145.08 ± 20.85
[1]; G2, 20 mg/kg/day, day 4
  Tumor size: 271.88 ± 60.05
[1]; G2, 20 mg/kg/day, day 7
  Tumor size: 556.42 ± 161.21
[1]; G2, 20 mg/kg/day, day 11
  Tumor size: 978.91 ± 258.24
[1]; G2, 20 mg/kg/day, day 14
  Tumor size: 1711.5 ± 631.79
[1]; G2, 20 mg/kg/day, day 18
  Tumor size: 2438.5 ± 962.99
[1]; G2, 20 mg/kg/day, day 21
  Tumor size: 3200.6 ± 944.99
[1]; G3, 50 mg/kg/day
  Body weight gain compared with excipient control group: significantly low
[1]; G3, 50 mg/kg/day, at 14 days and 21 days after administration
  Body weight compared with control group (G1): significantly low
[1]; G3, 50 mg/kg/day, day 0
  Tumor size: 149.36 ± 20.91
[1]; G3, 50 mg/kg/day, day 4
  Tumor size: 276.08 ± 86.17
[1]; G3, 50 mg/kg/day, day 7
  Tumor size: 442.88 ± 73.08
[1]; G3, 50 mg/kg/day, day 11
  Tumor size: 754.16 ± 211.86
[1]; G3, 50 mg/kg/day, day 14
  Tumor size: 1174.7 ± 411.22
[1]; G3, 50 mg/kg/day, day 18
  Tumor size: 1543.9 ± 411.21
[1]; G3, 50 mg/kg/day, day 21
  Tumor size: 2063.1 ± 657.93
